Test results published in patent publication US5858702A, “Isolation, cloning and expression of transmembrane water channel Aquaporin 5 (AQP5)” (The Johns Hopkins University, priority 1995, dated 1999).

Columns and labels:
Red cell water channels = settings: submillimolar concentrations; cited from earlier work
AQP1 = molecular target: T1, AQP1 (Homo sapiens, UniProt P29972); experiment: Xenopus oocyte osmotic swelling assay, AQP1 RNA-injected oocytes treated with HgCl2 / β-mercaptoethanol; format: cell-based; settings: for Pf: AQP1 RNA-injected (10 ng) oocytes
T1 construct: expressed in transfected cells; host or cells: Xenopus laevis oocytes injected with in vitro transcribed AQP1 RNA
T1 sequence (P29972 1-269): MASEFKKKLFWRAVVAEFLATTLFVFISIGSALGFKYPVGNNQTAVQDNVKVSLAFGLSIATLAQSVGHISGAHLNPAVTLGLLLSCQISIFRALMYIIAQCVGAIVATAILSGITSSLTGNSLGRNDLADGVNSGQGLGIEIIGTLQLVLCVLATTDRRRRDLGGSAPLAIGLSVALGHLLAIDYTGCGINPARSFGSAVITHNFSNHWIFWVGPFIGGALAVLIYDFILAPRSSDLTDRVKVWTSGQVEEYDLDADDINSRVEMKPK
Protocol: Expression of AOP1 in Xenopus oocytes. Oocytes were removed from female Xenopus laevis frogs and prepared as described by Dascal (CRC Crit. Rev. Biochem., 1987, 22:317-373). Oocytes were injected with 0.05 microliters of water (control) or the same volume of water containing 1-10 nanograms of AQP1 RNA. The oocytes were incubated for up to 96 hours at 18° C. in modified Barth's buffer (88 mM NaCl, 1 mM KCl, 0.8 mM MgSO4, 0.3 mM Ca(NO3) 2, 0.4 mM CaCl2, 2.4 mM NaHCO3, 10 mM HEPES, pH =7.4, total osmolality =200 mOsm/kg) also containing antibiotics. The whole oocytes were then removed and total cellular protein was dissolved in 40 microliters of buffer containing 1% (w/v) SDS and analyzed by immunoblot (Towbin et al., 1979, Proc. Natl. Acad. Sci. USA 76:4350-4354).
A swelling assay was adapted from that of published work (Fischbarg et al., 1990, Proc. Natl. Acad. Sci. USA 87:3244-3247; Zhang et al., 1990, J. Biol. Chem. 265:15375-15378). Control-injected oocytes and AQP1 RNA-injected oocytes were incubated at 22° C. in modified Barth's solution diluted with distilled H2 O to 30% of the original tonicity. The oocytes were then observed by videomicroscopy. Swelling was monitored with a Nikon phase-contrast microscope equipped for videorecording. The longest (D1) and shortest (D2) diameters of the oocytes were measured at 15- to 30-second intervals. Oocyte volumes (V) at each time point were calculated relative to volume at the initial observation (V0):
The change in relative volume with time, d(V/Vo)/dt, up to 8 minutes (or time of oocyte rupture) was fitted by computer to a quadratic polynomial, and initial rates of swelling were calculated. Osmotic water permeability (Pf, in cm/s) was calculated from osmotic swelling data, initial oocyte surface area (S=0.045 cm^2), and the molar volume of water (Vw =18 cm^3 /mol) (Zhang et al., 1990, J. Biol. Chem. 15375):
Pf =[Vo ×d(V/V0)dt]/[S×Vw
After 72 hours, control- or AQP1 RNA-injected (10 ng) oocytes were treated as indicated. Some oocytes were left in standard Barth's buffer prior to measurement of osmotic swelling at 22° C. […]

Row | SMILES | inhibition of red cell water channels (Red cell water channels) | Swelling of AQP1 RNA-injected oocytes, effect of HgCl2 (AQP1; 0.3 mM HgCl2) | effect of HgCl2 on increase in Pf mediated by AQP1 (AQP1; 1 mM HgCl2, 5 min. (FIG. 15)) | Pf (AQP1; 72 hours, HgCl2 0.3, ME 0, 5 minutes, swelling at 22° C.) [cm/s x 10^-4] | Pf (AQP1; 72 hours, HgCl2 3.0, ME 0, 5 minutes, 22° C.) [cm/s x 10^-4] | Pf of AQP1 oocytes after HgCl2, effect of β-mercaptoethanol (AQP1; 5 mM β-mercaptoethanol 30 min. after 1 mM HgCl2 (FIG. 15)) | Swelling of AQP1 RNA-injected oocytes after HgCl2, effect of β-mercaptoethanol (AQP1; 5 mM β-mercaptoethanol after 0.3 mM HgCl2) | Pf (AQP1; HgCl2 0.3 then ME 5 for 15 min, 22° C.) [cm/s x 10^-4]
1 | [Cl][Hg][Cl] [HgCl2] | can be inhibited by submillimolar concentrations | inhibited | blocked | 80.7 | 34.5 | – | – | –
2 | OCCS [β-mercaptoethanol] | – | – | – | – | – | restored | restored | 188
